# Results taken from patent US10556865B2, “Synergistic herbicidal composition containing certain pyridine or pyrimidine carboxylic acids and certain cereal and rice herbicides” (Dow AgroSciences, LLC, priority 2007, dated 2020).
# Where “and” joins values, the source holds several entries; their conditions need not be identical. Identical values can stand only once.
# What was measured:
# yellow foxtail (PESGL) = assay: Postemergence herbicidal activity of mixtures in cereal crops (greenhouse, visual injury); assay type: in vivo, Pennisetum americanum
# Procedure: Seeds of the desired test plant species were planted in Sun Gro MetroMix® 306 planting mixture, which typically has a pH of 6.0 to 6.8 and an organic matter content of about 30 percent, in plastic pots with a surface area of 103.2 square centimeters (cm^2). […] The plants were grown for 7-36 days in a greenhouse with an approximate 14 hour photoperiod which was maintained at about 18° C. during the day and 17° C. during the night. Nutrients and water were added on a regular basis and supplemental lighting was provided with overhead metal halide 1000-Watt lamps as necessary. The plants were employed for testing when they reached the second or third true leaf stage.
# Treatments consisted of compound (as listed in Tables 1 through 64) and a second cereal herbicide alone and in combination. […] The concentrated stock solutions were diluted to 1.5 mg ai/mL with the addition of 2 volumes of an aqueous mixture containing acetone, water, isopropyl alcohol, DMSO, Agri-dex crop oil concentrate, and Triton® X-77 surfactant in a 64.7:26.0:6.7:2.0:0.7:0.01 v/v ratio. A dilution solution was prepared by mixing 1 volume of 97:3 v/v acetone/DMSO and 2 volumes of an aqueous mixture containing acetone, water, isopropyl alcohol, DMSO, Agri-dex crop oil concentrate, and Triton® X-77 surfactant in a 64.7:26.0:6.7:2.0:0.7:0.01 v/v ratio. Compound requirements are based upon a 12 mL application volume at a rate of 187 liters per hectare (L/ha). […] Formulated compounds were applied to the plant material with an overhead Mandel track sprayer equipped with 8002E nozzles calibrated to deliver 187 L/ha over an application area of 0.503 square meters (m^2) at a spray height of 18 inches […] above average plant canopy. Control plants were sprayed in the same manner with the solvent blank.
# The treated plants and control plants were placed in a greenhouse as described above and watered by sub-irrigation to prevent wash-off of the test compounds. After 20-22 days, the condition of the test plants as compared with that of the control plants was determined visually and scored on a scale of 0 to 100 percent where 0 corresponds to no injury and 100 corresponds to complete kill.
# Colby's equation was used to determine the herbicidal effects expected from the mixtures (Colby, S. R. 1967. Calculation of the synergistic and antagonistic response of herbicide combinations. Weeds 15:20-22.).
# The following equation was used to calculate the expected activity of mixtures containing two active ingredients, A and B: Expected=A+B−(A×B/100)
# [1] = tested on: Leptochloa chinensis (L.) NEES (LEFCH); assay: Postemergence herbicidal mixtures for weed control in direct seeded rice (greenhouse, visual % injury); assay type: in vivo; details: for % Injury Ob: LEFCH
# [2] = tested on: Brachiaria platyphylla (BRISEB.) NASH (BRAPP); assay: as above; assay type: in vivo
# [3] = tested on: Cyperus esculentus L. (CYPES); assay: as above; assay type: in vivo; details: for % Injury Ob: CYPES
SMILES,PESGL Ob (yellow foxtail (PESGL); 8.75 g/ha) [%],PESGL Ob (yellow foxtail (PESGL); 17.5 g/ha) [%],PESGL Ob (yellow foxtail (PESGL); 35 g/ha) [%],PESGL Ob (yellow foxtail (PESGL); 70 g/ha) [%],% Injury Ob ([1]; 17.5 g/ha alone),% Injury Ob ([1]; 35 g/ha alone) [%],% Injury LEFCH Ob ([1]; alone 4.38 g/ha) [%],% Injury LEFCH Ob ([1]; alone 8.75 g/ha) [%],% Injury Ob ([2]; 4.38 g/ha alone) [%],% Injury Ob ([2]; 8.75 g/ha alone) [%],% Injury 11 DAA CYPES Ob ([3]; alone 8.75 g/ha) [%],% Injury 11 DAA CYPES Ob ([3]; alone 17.5 g/ha) [%],% Injury 21 DAA CYPES Ob ([3]; alone 8.75 g/ha) [%],% Injury 21 DAA CYPES Ob ([3]; alone 17.5 g/ha) [%],% Injury Ob ([3]; 4.38 g/ha alone) [%],% Injury Ob ([3]; 8.75 g/ha alone) [%],% Injury CYPES Ob ([3]; alone 4.38 g/ha)
"COC(=O)c1nc(-c2ccc(Cl)c(OC)c2F)nc(N)c1Cl [Compound B Methyl, 6-amino-5-chloro-2-(4-chloro-2-fluoro-3-methoxyphenyl)pyrimidine-4-carboxylic acid methyl ester]",60,65,65,70,–,–,–,–,–,–,–,–,–,–,–,–,–
"COC(=O)c1nc(-c2ccc(Cl)c(OC)c2F)cc(N)c1Cl [Compound A Methyl, 4-amino-3-chloro-6-(4-chloro-2-fluoro-3-methoxyphenyl)pyridine-2-carboxylic acid methyl ester]",–,–,–,–,75% and 50%,90,30,40,60,60,60,70,100,99,40,60,70% and 85%
